# Test results taken from ChEMBL document CHEMBL1201862, “PubChem BioAssay data set” (2004).
# Active and inactive are the calls of the source.
# Columns and labels:
# [1] = NIH3T3 cell viability loss – ATP luminescence, mouse fibroblasts, counter-screen, dose response (AID 2010); type: functional, cell-based;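 further: cells exposed to compound for about 90 hours before reading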
# [2] = target: T1, Histone-lysine N-methyltransferase NSD2 (Homo sapiens, UniProt O96028); type: biochemical
# T1 sequence (O96028 whole entry): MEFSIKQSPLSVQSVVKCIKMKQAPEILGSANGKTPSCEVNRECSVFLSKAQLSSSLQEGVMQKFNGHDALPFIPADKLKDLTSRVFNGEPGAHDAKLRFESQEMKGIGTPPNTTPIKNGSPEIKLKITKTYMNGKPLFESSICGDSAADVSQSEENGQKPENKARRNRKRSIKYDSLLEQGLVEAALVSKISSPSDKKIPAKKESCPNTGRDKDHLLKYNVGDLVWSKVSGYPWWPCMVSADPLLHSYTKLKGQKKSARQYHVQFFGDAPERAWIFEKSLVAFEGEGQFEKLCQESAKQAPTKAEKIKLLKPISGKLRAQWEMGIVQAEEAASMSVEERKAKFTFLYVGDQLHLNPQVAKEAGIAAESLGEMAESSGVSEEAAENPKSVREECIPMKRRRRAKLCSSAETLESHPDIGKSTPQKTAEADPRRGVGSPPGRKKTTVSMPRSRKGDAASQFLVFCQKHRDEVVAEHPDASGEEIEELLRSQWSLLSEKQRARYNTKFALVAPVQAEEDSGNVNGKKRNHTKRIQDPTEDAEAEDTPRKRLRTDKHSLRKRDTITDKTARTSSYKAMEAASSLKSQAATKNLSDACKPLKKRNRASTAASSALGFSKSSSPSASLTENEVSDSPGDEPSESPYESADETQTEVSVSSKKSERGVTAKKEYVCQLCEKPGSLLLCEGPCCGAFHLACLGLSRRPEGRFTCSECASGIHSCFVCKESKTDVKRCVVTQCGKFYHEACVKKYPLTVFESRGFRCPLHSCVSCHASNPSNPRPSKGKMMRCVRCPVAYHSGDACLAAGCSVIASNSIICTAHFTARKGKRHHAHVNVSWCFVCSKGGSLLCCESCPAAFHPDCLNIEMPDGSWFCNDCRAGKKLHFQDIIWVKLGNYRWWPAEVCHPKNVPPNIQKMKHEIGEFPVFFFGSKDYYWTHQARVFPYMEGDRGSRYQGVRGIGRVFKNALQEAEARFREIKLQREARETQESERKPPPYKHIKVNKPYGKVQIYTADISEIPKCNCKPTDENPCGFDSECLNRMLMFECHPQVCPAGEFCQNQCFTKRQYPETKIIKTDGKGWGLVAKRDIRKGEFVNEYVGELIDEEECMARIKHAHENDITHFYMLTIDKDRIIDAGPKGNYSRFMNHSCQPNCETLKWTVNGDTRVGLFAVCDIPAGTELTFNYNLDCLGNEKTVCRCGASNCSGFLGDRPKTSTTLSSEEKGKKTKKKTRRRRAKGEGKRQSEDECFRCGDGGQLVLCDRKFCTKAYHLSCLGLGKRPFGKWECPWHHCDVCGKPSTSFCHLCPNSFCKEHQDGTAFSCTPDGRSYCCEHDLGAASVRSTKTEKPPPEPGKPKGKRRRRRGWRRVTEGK
# [3] = target: T2, Voltage-gated N-type calcium channel alpha-1B subunit/Amyloid beta A4 precursor protein-binding family A member 1 (Homo sapiens, UniProt Q00975+Q02410); type: protein assay
# T2 sequence (Q00975 whole entry): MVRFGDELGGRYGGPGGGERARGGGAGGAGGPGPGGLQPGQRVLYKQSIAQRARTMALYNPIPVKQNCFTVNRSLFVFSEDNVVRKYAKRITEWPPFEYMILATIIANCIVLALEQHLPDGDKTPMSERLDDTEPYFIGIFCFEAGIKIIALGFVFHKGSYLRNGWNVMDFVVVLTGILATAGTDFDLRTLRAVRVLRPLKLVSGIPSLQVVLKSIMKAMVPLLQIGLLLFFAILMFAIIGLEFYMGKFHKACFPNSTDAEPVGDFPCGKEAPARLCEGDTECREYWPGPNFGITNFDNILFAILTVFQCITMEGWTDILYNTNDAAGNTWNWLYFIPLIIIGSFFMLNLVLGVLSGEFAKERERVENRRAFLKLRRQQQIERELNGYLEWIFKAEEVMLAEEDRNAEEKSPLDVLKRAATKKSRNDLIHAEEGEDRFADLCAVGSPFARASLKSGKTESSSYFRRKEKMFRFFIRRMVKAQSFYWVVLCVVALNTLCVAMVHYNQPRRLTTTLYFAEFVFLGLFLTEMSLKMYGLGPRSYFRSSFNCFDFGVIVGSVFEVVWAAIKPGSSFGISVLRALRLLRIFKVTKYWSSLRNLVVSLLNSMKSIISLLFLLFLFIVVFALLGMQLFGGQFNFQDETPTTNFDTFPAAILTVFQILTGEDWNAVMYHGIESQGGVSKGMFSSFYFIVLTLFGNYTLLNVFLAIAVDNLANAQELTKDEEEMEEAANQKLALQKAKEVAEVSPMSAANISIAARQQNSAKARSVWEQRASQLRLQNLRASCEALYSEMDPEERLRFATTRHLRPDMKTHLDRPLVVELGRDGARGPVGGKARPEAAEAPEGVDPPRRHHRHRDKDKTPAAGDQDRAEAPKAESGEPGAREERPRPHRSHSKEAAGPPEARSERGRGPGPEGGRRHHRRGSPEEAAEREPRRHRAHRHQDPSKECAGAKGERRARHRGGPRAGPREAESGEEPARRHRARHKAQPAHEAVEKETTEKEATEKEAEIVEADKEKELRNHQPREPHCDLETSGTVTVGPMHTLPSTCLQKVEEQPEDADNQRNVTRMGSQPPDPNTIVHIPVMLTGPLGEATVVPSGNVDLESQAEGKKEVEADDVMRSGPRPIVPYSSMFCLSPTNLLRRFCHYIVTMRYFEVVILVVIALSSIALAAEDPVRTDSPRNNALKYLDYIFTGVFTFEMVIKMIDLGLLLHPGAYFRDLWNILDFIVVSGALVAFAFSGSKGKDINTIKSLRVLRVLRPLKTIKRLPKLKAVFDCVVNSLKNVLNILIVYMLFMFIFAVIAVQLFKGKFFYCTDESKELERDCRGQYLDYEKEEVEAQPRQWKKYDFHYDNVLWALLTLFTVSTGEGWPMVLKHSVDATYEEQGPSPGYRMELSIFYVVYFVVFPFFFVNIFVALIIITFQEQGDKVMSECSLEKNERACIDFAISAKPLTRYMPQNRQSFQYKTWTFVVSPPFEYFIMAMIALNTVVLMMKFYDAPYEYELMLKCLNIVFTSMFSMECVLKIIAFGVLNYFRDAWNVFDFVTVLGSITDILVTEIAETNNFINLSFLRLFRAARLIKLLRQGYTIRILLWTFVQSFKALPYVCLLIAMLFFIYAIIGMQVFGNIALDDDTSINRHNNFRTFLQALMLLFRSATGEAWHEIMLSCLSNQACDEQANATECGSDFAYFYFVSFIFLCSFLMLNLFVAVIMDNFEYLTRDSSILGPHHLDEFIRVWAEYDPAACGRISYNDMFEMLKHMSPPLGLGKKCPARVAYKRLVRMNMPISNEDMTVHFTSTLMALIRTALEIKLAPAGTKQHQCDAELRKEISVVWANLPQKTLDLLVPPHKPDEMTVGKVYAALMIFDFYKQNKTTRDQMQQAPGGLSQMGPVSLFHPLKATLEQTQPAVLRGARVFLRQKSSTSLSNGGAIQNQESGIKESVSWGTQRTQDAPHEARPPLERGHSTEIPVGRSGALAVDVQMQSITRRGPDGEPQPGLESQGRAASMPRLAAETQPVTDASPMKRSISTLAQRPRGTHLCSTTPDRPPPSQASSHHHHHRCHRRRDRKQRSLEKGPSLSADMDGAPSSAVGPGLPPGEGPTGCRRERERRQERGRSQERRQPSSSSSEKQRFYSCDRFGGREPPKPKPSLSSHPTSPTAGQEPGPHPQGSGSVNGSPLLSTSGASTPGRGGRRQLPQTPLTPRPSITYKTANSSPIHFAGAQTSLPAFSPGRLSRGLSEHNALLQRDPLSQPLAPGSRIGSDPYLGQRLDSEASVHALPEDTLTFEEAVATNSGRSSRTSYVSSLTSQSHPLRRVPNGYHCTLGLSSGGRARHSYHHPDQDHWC
# T2 sequence (Q02410 whole entry): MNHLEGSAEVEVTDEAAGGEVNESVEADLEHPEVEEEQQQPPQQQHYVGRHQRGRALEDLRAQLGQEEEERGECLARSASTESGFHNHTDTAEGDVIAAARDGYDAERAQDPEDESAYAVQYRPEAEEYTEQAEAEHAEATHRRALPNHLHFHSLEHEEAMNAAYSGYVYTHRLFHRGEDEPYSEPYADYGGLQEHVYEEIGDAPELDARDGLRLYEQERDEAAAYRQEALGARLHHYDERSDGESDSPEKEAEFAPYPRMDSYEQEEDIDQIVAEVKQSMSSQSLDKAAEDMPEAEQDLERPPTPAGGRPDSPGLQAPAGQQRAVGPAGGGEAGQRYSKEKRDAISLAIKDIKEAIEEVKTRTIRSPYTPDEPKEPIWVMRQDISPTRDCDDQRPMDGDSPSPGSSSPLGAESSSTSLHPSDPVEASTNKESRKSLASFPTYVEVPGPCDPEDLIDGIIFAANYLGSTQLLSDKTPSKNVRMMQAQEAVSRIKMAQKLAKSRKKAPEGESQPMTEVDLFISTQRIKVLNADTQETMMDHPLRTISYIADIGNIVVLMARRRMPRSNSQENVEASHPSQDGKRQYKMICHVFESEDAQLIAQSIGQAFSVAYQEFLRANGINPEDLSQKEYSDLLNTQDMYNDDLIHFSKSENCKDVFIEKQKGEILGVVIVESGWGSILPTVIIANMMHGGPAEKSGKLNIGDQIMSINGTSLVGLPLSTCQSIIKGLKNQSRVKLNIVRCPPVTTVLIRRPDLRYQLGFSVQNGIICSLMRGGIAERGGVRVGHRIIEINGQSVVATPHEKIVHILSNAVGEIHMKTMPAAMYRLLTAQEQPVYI
# Genome polyprotein = Genome polyprotein (dengue virus type 2, UniProt P29990); experiment: flavivirus cap methylation enzyme inhibition – biochemical, confirmation dose response, primary screen (AID 588689); type: functional
# [4] = Trypanosoma cruzi growth suppression in host cells – NIH3T3 host cells, beta-gal luminescence, confirmation (AID 2044); type: functional, cell-based;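 further: intracellular parasites grown in NIH/3T3 mouse fibroblasts as host cells; luminescent beta-galactosidase reporter signal from transgenic T. cruzi replicating inside host cells; inhibitors lower the luminescence signal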
# [5] = target: T2, Voltage-gated N-type calcium channel alpha-1B subunit/Amyloid beta A4 precursor protein-binding family A member 1; type: protein assay; remark: listed apart in the source
# Cytochrome P450 2C9 = Cytochrome P450 2C9 (Homo sapiens, UniProt P11712)
# Chain of Cytochrome P450 2C9 (P11712 whole entry): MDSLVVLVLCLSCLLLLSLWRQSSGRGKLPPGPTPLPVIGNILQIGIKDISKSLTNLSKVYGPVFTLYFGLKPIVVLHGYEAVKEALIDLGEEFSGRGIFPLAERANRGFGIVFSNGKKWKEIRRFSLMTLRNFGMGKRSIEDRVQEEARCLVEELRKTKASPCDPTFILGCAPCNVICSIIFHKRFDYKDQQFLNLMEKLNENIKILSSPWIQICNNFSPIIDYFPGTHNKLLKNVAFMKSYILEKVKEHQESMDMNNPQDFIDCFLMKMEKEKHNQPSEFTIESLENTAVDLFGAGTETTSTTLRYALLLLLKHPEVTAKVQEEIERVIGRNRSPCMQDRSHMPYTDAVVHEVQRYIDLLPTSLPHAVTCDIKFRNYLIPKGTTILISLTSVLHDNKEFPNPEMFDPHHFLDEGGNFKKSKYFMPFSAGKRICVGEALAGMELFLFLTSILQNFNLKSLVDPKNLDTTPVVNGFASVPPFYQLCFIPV
# Cytochrome P450 2D6 = Cytochrome P450 2D6 (Homo sapiens, UniProt P10635);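 further: CYP2D6 member of a cytochrome P450 panel assay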
# Chain of Cytochrome P450 2D6 (P10635 whole entry): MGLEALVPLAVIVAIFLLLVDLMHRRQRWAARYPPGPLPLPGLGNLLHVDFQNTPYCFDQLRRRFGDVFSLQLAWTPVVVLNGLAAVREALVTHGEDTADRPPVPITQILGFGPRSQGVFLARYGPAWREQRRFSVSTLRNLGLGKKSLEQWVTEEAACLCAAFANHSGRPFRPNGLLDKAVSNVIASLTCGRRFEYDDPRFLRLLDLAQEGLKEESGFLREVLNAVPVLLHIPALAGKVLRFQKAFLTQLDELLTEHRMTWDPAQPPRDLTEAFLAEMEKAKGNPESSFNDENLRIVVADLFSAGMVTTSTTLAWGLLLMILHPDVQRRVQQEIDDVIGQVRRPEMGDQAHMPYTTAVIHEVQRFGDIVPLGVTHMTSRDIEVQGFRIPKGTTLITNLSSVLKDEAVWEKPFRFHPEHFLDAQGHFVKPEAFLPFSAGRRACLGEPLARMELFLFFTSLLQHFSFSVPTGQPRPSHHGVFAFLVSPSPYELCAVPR
# Vero [6] = experiment: cells; type: functional; settings: Chlorocebus sabaeus
# Vero [7] = experiment: cells; type: functional, cell-based; settings: Chlorocebus sabaeus
# [8] = NIH-3T3 fibroblast cytotoxicity, dose response, cytotoxicity control, cell-based, fluorescence, Alamar Blue, secondary assay (AID 2327); type: functional;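 further: NIH-3T3 mouse fibroblasts cultured with fluconazole at 8 µg/mL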
# [9] = fluconazole-exposed Candida albicans growth modulators – fluorescence, retest, confirmation (AID 2467); type: functional, cell-based
# [10] = target: T3, Serine/threonine-protein phosphatase (Candida dubliniensis (strain CD36 / CBS 7987 / NCPF 3949 / NRRLY-17841) (Yeast), UniProt B9W6M3); experiment: blockers of CaCl2-induced CDRE-lacZ signaling – S. cerevisiae, luminescence, secondary, dose response (AID 2388); type: functional, cell-based;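 further: yeast reporter cells carrying a calcineurin-responsive lacZ construct stimulated with calcium chloride; luminescent beta-galactosidase reporter signal in whole cells rather than isolated phosphatase activity; potency for inhibition where a drop in reporter signal means calcineurin blockade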
# T3 sequence (B9W6M3 whole entry): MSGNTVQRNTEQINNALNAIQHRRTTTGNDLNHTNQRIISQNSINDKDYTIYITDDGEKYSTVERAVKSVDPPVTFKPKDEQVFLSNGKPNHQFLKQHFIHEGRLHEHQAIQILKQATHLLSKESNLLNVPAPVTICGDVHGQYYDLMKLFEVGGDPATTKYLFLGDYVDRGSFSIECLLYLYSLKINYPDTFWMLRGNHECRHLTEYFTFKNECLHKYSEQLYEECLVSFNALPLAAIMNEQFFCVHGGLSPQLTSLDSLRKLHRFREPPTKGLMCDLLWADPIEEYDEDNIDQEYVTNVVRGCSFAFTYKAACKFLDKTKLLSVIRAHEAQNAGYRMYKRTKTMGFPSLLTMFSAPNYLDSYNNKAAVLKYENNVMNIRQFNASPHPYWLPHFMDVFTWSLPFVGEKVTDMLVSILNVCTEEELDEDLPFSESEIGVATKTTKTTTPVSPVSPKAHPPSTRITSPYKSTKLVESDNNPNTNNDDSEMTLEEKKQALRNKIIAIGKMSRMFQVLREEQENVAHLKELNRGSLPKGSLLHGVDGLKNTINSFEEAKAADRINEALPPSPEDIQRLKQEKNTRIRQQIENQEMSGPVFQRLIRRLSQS
# [11] = target: ATP-dependent molecular chaperone HSP82 (Candida albicans (strain WO-1) (Yeast), UniProt C4YTQ8); experiment: steroid-induced GRE reporter decrease in yeast – S. cerevisiae, luminescence, Hsp90 inhibitor project, dose response (AID 2400); type: functional, cell-based;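 further: beta-galactosidase luminescence from glucocorticoid response element reporter as proxy for Hsp90 function; inhibitor potency where signal loss means Hsp90 inhibition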
# Chain of ATP-dependent molecular chaperone HSP82 (C4YTQ8 whole entry): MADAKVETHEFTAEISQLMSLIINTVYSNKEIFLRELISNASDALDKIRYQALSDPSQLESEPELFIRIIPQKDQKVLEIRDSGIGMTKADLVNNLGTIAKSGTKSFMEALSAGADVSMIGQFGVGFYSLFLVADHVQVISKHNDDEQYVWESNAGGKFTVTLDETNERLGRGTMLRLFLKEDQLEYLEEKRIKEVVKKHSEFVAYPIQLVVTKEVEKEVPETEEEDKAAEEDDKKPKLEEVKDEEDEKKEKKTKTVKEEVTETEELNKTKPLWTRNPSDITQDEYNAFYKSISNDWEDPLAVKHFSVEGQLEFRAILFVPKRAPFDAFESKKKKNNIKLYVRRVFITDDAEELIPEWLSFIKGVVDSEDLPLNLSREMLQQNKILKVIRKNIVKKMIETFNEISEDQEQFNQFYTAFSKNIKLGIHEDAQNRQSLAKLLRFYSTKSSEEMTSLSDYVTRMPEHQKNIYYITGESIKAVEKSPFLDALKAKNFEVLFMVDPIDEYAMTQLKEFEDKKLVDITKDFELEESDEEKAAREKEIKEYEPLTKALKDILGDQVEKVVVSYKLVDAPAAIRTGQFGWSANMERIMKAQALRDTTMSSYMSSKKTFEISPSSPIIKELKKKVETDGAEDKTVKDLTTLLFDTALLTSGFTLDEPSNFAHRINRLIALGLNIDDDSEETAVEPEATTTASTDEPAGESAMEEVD
# [12] = target: T4, Microphthalmia-associated transcription factor (Homo sapiens, UniProt O75030); experiment: reducers of TRPM1 reporter luminescence, concentration series – cell-based, SK-MEL-5, cherry-picked, set 3, MITF inhibitor project, dose response (AID 493073); type: functional;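 further: SK-MEL-5 melanoma cells with luciferase driven by the MITF target TRPM1 promoter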
# T4 sequence (O75030 whole entry): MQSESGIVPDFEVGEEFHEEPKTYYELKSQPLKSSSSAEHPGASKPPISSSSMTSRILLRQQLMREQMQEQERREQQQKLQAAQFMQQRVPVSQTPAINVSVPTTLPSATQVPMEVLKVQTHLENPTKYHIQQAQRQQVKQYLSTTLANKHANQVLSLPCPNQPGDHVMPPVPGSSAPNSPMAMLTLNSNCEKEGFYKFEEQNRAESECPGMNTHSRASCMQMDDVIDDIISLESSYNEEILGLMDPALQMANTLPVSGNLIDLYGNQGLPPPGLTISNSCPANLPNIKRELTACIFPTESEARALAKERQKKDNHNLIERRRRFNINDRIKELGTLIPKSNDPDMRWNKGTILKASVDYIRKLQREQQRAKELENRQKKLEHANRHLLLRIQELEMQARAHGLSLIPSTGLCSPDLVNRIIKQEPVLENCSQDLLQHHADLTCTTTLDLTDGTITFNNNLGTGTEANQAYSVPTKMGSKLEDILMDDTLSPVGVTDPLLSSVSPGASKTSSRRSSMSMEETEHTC
# [13] = target: T5, Short transient receptor potential channel 4 (Mus musculus, UniProt Q9QUQ5); experiment: block of DAMGO-driven TRPC4 calcium entry – cell-based, HEK293 TRPC4/mu-opioid, Fluo-4 calcium, dose response (AID 434942); type: functional;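 further: potency of inhibitors blocking the TRPC4 calcium response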
# T5 sequence (Q9QUQ5 whole entry): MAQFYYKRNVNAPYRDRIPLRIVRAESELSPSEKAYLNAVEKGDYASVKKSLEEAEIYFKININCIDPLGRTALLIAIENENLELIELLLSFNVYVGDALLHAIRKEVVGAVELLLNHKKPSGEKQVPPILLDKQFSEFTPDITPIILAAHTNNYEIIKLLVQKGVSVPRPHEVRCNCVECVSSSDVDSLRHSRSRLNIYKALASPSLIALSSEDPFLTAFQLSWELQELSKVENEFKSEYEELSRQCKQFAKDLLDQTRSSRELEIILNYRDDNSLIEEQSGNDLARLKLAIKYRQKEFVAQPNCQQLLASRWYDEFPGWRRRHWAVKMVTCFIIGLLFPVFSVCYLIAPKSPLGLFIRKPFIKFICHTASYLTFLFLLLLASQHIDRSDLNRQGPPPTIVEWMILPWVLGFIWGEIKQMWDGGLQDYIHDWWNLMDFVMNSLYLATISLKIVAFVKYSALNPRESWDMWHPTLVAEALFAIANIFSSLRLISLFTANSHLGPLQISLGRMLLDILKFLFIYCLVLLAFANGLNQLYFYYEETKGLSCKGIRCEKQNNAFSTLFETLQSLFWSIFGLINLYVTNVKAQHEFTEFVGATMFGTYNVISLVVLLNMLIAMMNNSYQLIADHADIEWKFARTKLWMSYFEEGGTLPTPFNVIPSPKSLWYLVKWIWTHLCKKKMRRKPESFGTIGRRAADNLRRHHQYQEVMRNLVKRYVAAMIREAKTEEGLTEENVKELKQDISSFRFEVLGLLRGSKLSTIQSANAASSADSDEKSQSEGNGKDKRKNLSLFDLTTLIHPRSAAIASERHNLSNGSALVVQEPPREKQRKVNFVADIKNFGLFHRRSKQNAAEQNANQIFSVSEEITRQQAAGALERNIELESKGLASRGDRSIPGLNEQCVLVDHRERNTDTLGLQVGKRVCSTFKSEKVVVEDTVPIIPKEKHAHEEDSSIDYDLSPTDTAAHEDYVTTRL
# [14] = target: Eukaryotic translation initiation factor 4E (Mus musculus, UniProt P63073); experiment: blockers of eIF4G binding by eIF4E – biochemical, TR-FRET, dose response (AID 855); type: functional;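 further: potency for disrupting eIF4E binding to eIF4GI seen as loss of FRET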
# Chain of Eukaryotic translation initiation factor 4E (P63073 whole entry): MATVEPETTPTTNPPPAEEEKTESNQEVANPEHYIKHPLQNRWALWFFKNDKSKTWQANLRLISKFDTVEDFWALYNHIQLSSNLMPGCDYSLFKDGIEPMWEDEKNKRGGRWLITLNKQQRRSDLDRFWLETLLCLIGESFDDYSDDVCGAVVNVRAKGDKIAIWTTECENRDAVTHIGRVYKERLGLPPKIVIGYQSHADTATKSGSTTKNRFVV
# [15] = luciferase reporter signal suppression in cells – H4 neuroglioma cells, luminescence, dose response (AID 1990); type: functional, cell-based
# [16] = Luminescence Cell-Based Dose Response HTS to Identify Inhibitors of 5'UTR Stem-Loop Driven Prion Protein mRNA Translation in H4 Neuroglioblastoma Cells. [Related pubchem assays: 1827 (Project Summary), 1813 (Primary HTS)]; type: functional
# cells [17] = type: functional, cell-based
# cells [18] = type: functional, cell-based; remark: listed apart in the source
# Nonstructural protein 1 = Nonstructural protein 1 (Influenza A virus, UniProt Q194T2); type: functional, Influenza A virus (A/California/07/2009(H1N1))
# [19] = alpha-synuclein stem-loop luciferase translation blockers – H4 neuroglioma cells, luminescence, confirmation (AID 1988); type: functional, cell-based
structure (smiles),measurement,setting,value
COc1ccc(N2C(=O)NC(=O)/C(=C\c3ccc([N+](=O)[O-])s3)C2=O)cc1,EC50,[1],> 60 µM (inconclusive)
same,AC50,[2],> 20 µM (inactive)
same,IC50,[3],10.3 µM (active)
same,IC50,Genome polyprotein,39.1 µM (active)
same,EC50,[4],3.77 µM (active)
same,IC50,[5],18.2 µM (active)
Clc1ccc(-n2nnnc2CN2CCOCC2)cc1,AC50,Cytochrome P450 2C9,inconclusive
same,AC50,Cytochrome P450 2D6,inconclusive
CCOc1cc(CNCCCN2CCOCC2)ccc1OCC(=O)Nc1cccc2ccccc12,CC50,Vero [6],> 25 µM (active)
same,IC50,Vero [7],18.6 µM (active)
NC(=O)c1c(NC(=O)c2ccco2)sc2c1CCC2,EC50,[8],> 150 µM (inactive)
same,EC50,[9],0.654 µM (inconclusive)
same,EC50,[10],> 180 µM (inactive)
same,EC50,[11],> 150 µM (inactive)
CCN1CCCC1CNC(=O)C(=O)Nc1ccccc1OC (stereo not given),AC50,Cytochrome P450 2C9,inconclusive
same,AC50,Cytochrome P450 2D6,inconclusive
O=C(c1cc2c(s1)CCCCC2)N1CCN(c2ncccn2)CC1,EC50,[8],> 160 µM (inconclusive)
same,EC50,[9],1.2 µM (active)
same,EC50,[10],> 180 µM (inactive)
same,EC50,[11],23.9 µM (active)
CC(C)C(CCNC1CCN(C)CC1)c1ccc(Cl)cc1 (stereo not given),CC50,Vero [6],20.4 µM (active)
same,IC50,Vero [7],> 25 µM (active)
same,AC50,[12],11.9 µM (active)
CC(C)CN(CC(C)C)c1ccc(C=C2C(=O)NC(=S)NC2=O)cc1[N+](=O)[O-],EC50,[13],1.88 µM (active)
same,IC50,Genome polyprotein,15.9 µM (active)
same,IC50,[14],42.1 µM (inactive)
O=C(O)[C@H]1C[C@H](C(=O)O)N1,AC50,Cytochrome P450 2D6,inconclusive
O=[N+]([O-])c1cccc(/C=N/Nc2nc(NCc3ccccc3)nc(N3CCOCC3)n2)c1O,EC50,[15],11.4 µM (active)
same,EC50,[16],14.1 µM (active)
same,EC50,cells [17],13.4 µM (active)
same,CC50,Vero [6],14.7 µM (active)
same,IC50,Vero [7],12.2 µM (active)
same,EC50,cells [18],> 350 µM (not active)
same,IC50,Nonstructural protein 1,6.2 µM (active)
same,EC50,[19],15 µM (active)
COc1cc(NC(=O)c2ccccc2)ccc1NC(=O)c1cc2ccccc2o1,IC50,[3],> 50 µM (inactive)
same,IC50,[5],> 56.8 µM (not active)
Cc1cccn2cc(COc3ccc(-c4ccccc4)cc3)nc12,CC50,Vero [6],> 25 µM (active)
same,IC50,Vero [7],11.6 µM (active)
CCOC(=O)c1cnc(-c2ccccc2)nc1Oc1ccc(Cl)cc1,AC50,Cytochrome P450 2D6,inconclusive
